Results taken from patent publication US20210381022A1, “INTEGRATED DRUG DISCOVERY PLATFORM FOR INBORN ERROR OF METABOLISM DISORDERS” (RAMOT AT TEL-AVIV UNIVERSITY LTD., priority 2018, published 2021).
“Also recorded” adds a separate entry of the source.

Assays:
[1] = tested on: mutant yeast strain; assay: IC50 assay in yeast, rescue from adenine toxicity (HTS growth format); assay type: cell-based; conditions: Saccharomyces cerevisiae, 22 h, read-out: IC50, rescuing mutant yeast strain from adenine toxicity
Method: Yeast strains were grown over night at 30° C. in SD medium without adenine and were diluted to OD600 0.005. 80 μL of cells were platted on 384 wells plates and incubated at 30° C. for 22 hours with continuous shaking. OD600 was measured using Tecan™ SPARK 10M plate reader.
Yeast strains were diluted to OD600 0.005. 80 μL of cells were platted on 384 wells plates. Compounds were added with Tecan™ D300 printer at relevant concentrations and plates were incubated at 30° C. for 22 hours with continuous shaking. OD600 was measured using Tecan™ SPARK 10M plate reader. IC50 calculations were performed with CDD software.
The high-throughput screening was calibrated for 384 plate format using phenotypic assay based on yeast growth rate (measured by OD). The goal was to find hit compounds that will dramatically improve the growth rate as compared to the salvage mutant in the presence of adenine. All relevant controls were used including: mutant yeast grown without adenine addition, WT yeast, and mutant yeast in the presence of adenine with Prazosin as a positive control compound. Potential hits were selected after calculations of growth curve slopes and area under the curve during the logarithmic phase. After hit validation and dose response experiments, hits displaying low IC50 rates were selected implying on a good potential for some of the compounds (FIG. 14).

[2] = tested on: adenine fibrils; assay: ThT assay of adenine self-assembly inhibition in vitro; conditions: adenine 8 mg/ml in PBS with inhibitor
Method: Adenine was dissolved at 90° C. in PBS to a final concentration of 8 mg/ml and mixed with the indicated inhibitor, at the indicated concentrations, or with PBS as a control, followed by addition of ThT in PBS. ThT emission data at 480 nm (excitation at 450 nm) were measured at the end point.
Adenine was dissolved to a final concentration of 8 mg/ml at 90° C. in PBS. The solution was plated on a 96-well black plate and mixed with the inhibitor baicalein at the stated concentration, and with 20 μm ThT (final concentration). Fluorescence (excitation at 450 nm, emission at 480 nm) was recorded over time using a Tecan™ Infinite® 200 PRO plate reader. Data processing was performed using the OriginLab software.
To further examine if the compounds specifically target the adenosine amyloid-like structures. the compounds were tested using adenine in-vitro aggregation assay. Adenine was self-assembled with and without the inhibitors and stained with the amyloids dye, Thioflavin T (ThT). […] More specifically. Adenosine (30 mg/mL) and guanosine (3 mg/ml) were dissolved in PBS at 90° C., followed by the addition of ThT at final concentration of 20 μM. ThT emission data at 480 nm (excitation at 450 nm) was measured over time. TEM images show elongated adenosine fibrils (10 mg/mL) and guanosine fibrils (1 mg/mL) (FIGS. 34A and 34B, respectively). ThT fluorescence assay of adenosine and guanosine assemblies, are shown by FIGS. 34C, and 34D respectively.

[3] = tested on: adenosine aggregates in ADA deficient LCLs; assay: Aggregation assay (Proteostat, FACS) on ADA deficient LCLs; assay type: cell-based, human; conditions: for formation of adenosine aggregates (aggregation level, Proteostat staining): patient derived lymphoblastoids, 19 concentrations from 50 μM to 0.003 μM
Method: 24 hours after seeding in full medium cells were washed with medium without serum and placed in medium without serum. Following 72 hours of incubation with or without Adenosine (A9251 SIGMA) (200 ug/ml), cells were washed with PBS and stained for adenosine aggregates with Proteostat dye (ENZ-51023-KP002). Proteostat concentration was 1:3000 of diluted stock. Following 15 minutes' incubation, cells were washed with PBS and mean fluorescence was measured with FACS.
Cells were treated with adenosine alone or with adenosine with compounds. Compound activity was tested in 19 concentrations in range from 50 uM to 0.003 uM.
Readouts: Proteostat Fluorescence intensity was measured with FACS at 2 excitation wavelengths: 488 nm and 550 nm. Emission wavelength was 600 nm.
24 hours after seeding in 96 round bottom plates in full medium cells were washed once with medium without serum and placed in medium without serum. Following 72 hours of incubation with or without Adenosine (200 ug/ml) and with or without purpurin (2 uM), cells were washed once with PBS and stained for adenosine aggregates with Proteostat dye (Enzo Life Sciences). Proteostat concentration was 1:4000 of diluted stock. Following 15 minutes incubation, cells were washed with PBS and mean flow cytometry was preformed using Stratedigm S1000EXi and the CellCapTure software (Stratedigm, San Jose, Calif.). Analyses were performed using FlowJo software (TreeStar, version 10).
For quantification of intracellular adenosine aggregates by FACS analyses, 100,000 cells were seeded in 96 well plates in full medium. After 24 hours, cells were centrifuged, washed once and added with serum free medium with or without Adenosine (200 μg/ml). After incubation of 72 hours cells were washed with PBS and stained for adenosine aggregates with Proteostat dye. Following 15 minutes incubation, cells were washed with PBS and mean fluorescence was measured with FACS. Mean cell fluorescence of every cell line was normalized to its signal without adenosine and data is presented as percentage of aggregates.

[4] = tested on: ADA deficient LCLs; assay: LCLs survival assay (XTT), ADA deficient LCLs; assay type: cell-based, human; conditions: 2 μM Purpurin, with adenosine, 72 hours, vs control LCLs
Method: 24 hours after seeding in 96 round bottom plates in full medium cells were washed once with medium without serum and placed in medium without serum. Following 72 hours of incubation with or without Adenosine (200 ug/ml) and with or without purpurin (2 uM), XTT based cell viability assay was performed. Absorbance was measured with Tecan™ SPARK 10M plate reader.
In order to assess the toxic effect of adenosine aggregates, XTT based cell viability assays were performed on healthy and ADA deficient LCLs. Cells went through similar procedure as described above except adenosine was at 300 μg/ml. Survival percentage was calculated as absorbance with adenosine divided by absorbance without adenosine. […] Moreover. 4 out of 5 ADA deficient cell lines display less than 20% survival (FIG. 15B cell lines 7,8,9,11,12).

[5] = tested on: aro3Δ mutant; assay: Yeast growth assay of aro3Δ mutant with tyrosine feeding; assay type: cell-based, Saccharomyces cerevisiae
Method: (§1) Strains were grown over night at 30° C. in SD medium without adenine. For spotting assays, strains were diluted to 6.25*10^7 cells/mL and were then 5-fold serially diluted and spotted on SD media with the indicated concentrations of adenine or TA (Sigma-Aldrich). Plates were incubated at 30° C. for 2 days. […] For OD600 measurements, strains were diluted to OD600 0.01, 200 μL of cells were platted on 96 wells plates and incubated at 30° C. for 25 hours with continuous shaking. OD600 was measured using Tecan™ SPARK 10M plate reader.
The focus was put on a strain with a deletion of the ARO3 gene in which a significant decrease in cellular growth was observed upon tyrosine feeding (see FIG. 21). The inventors aimed to determine whether the toxic effect was influenced by different levels of tyrosine. Thus, the cellular growth of wild-type and the aro3Δ mutant was examined by serial dilutions on selective plates that were supplemented with different concentrations of tyrosine (FIG. 21A). In addition, cellular growth was also examined by measuring the turbidity of the medium upon addition of the indicated concentration of tyrosine (FIG. 21B). […] Thus, cell growth is affected by tyrosine levels in a dose-dependent manner which further supports the notion that the toxicity in the aro3Δ mutant results from the presence of tyrosine.
In order to examine the effect of EGCG on cell growth, the aro3Δ mutant was spotted on 4a.a SD plates that contained tyrosine alone or tyrosine with different concentrations of EGCG. […] Thus, the lag phase in the presence of EGCG was nearly the same as cells unexposed to tyrosine, indicating the potent ability of EGCG to eliminate the tyrosine sensitivity of the aro3Δ mutant. […] Next, the inventors aimed to gain additional insights into the effect of EGCG on the amyloid-like fibrils formed by the accumulation of tyrosine in the aro3Δ mutant cells. For that purpose, cells were stained with the amyloid-specific dye ProteoStat®, and FACS was applied to detect tyrosine aggregates. […] (FIG. 25).

[6] = tested on: tyrosine aggregates in aro3Δ mutant cells; assay: Flow cytometry with ProteoStat staining of aro3Δ mutant; assay type: cell-based, Saccharomyces cerevisiae; conditions: tyrosine 0.02 mM, EGCG 5 mM
Method: An amount of 1 mL of logarithmic cells were washed with PBS buffer and sonicated using 15 s pulses at 20% power. For each sample, 2*10^6 cells were resuspended with ProteoStat dye (Enzo Life Sciences) diluted 1:3000 in ProteoStat assay buffer. Cells were incubated for 15 min at room temperature protected from light. Flow cytometry was preformed using Stratedigm S1000EXi and the CellCapTure software (Stratedigm, San Jose, Calif.). Live cells were gated (P1) by forward scatter and side scatter. Fluorescence channels for FITC (530/30) and PE-Cy5 (676/29) were used utilizing a 488 nm laser source. A total of 50,000 events were acquired for each sample. Analyses were performed using FlowJo software (TreeStar, version 10).
In order to examine whether the inhibition in cell growth in a non-linear cooperative manner upon tyrosine feeding (FIG. 23A, 23B) is associated with in vivo formation of amyloid-like assemblies, cells were stained with ProteoStat®, a well-established amyloid-specific fluorescent dye that was previously shown to detect the presence of intracellular protein amyloid-like aggregates in living bacterial cells with high specificity, even when the target proteins are expressed at low levels.
In order to examine the effect of EGCG on cell growth, the aro3Δ mutant was spotted on 4a.a SD plates that contained tyrosine alone or tyrosine with different concentrations of EGCG. […]

[7] = tested on: wild-type strain; assay: Yeast growth assay of wild-type strain; assay type: cell-based, Saccharomyces cerevisiae; conditions: tyrosine in media, EGCG added
Method: as §1

[8] = tested on: fah-1 RNAi treated worms; assay: C. elegans model for Tyrosinemia (fah-1 RNAi); assay type: in vivo, Caenorhabditis elegans; conditions: fah-1 RNAi, tyrosine added, EGCG added
Method: (§2) Wild-type N2, RB857 and NL2099 worms were obtained from the Caenorhabditis Genetics Center. RNAi clones was obtained from the Ahringer RNAi library as previously described [Fisher A L, et al., J. Biol. Chem. 283: 9127-9135(2008)]. Worms were grown on NGM media without peptone and the metabolites were added into a boiling media. Baicalein and EGCG were added to a media after cooled down to 45 degrees.
Mutations in different enzymes that are involved in the tyrosine degradation pathway are responsible for different types of Tyrosinemia. The tyrosine degradation pathway in mammals and C. elegans in conserved and the most severe is type I Tyrosinemia, which is caused by mutations affecting the last enzyme in the pathway, fumarylacetoacetate hydrolase (FAH). To study Tyrosinemia in C. elegans model, an RNAi was used that specifically silences the fumarylacetoacetate hydrolase (fah-1), as was previously reported (K10C4.2). RNAi directed against fah-1 causes severe phenotype of reduced size, impaired fertility and reduction of total number of viable worms (FIG. 32).

[9] = tested on: phenylalanine assemblies; conditions: reference [4]; cited from earlier work
[10] = tested on: gcv1Δ cells; conditions: SD media with glycine
[11] = tested on: lat1Δ; assay: Yeast growth assay of lat1Δ with isoleucine; assay type: cell-based, Saccharomyces cerevisiae; conditions: minimal media with isoleucine, 40 h
Method: Growth curves of WT and lat1Δ on minimal media with or without […] isoleucine. Cells were incubated at 30° C. for 40 h, with continuous shaking.
To establish an in vivo model in yeast for the study of BCAA accumulation and toxicity, the LAT1 gene was disrupted. LAT1 encodes the dihydrolipoamide acetyltransferase component (E2) of the yeast pyruvate dehydrogenase complex. LAT1 catalyzes the oxidative decarboxylation of pyruvate to acetyl-CoA and mutations in DBT1, the human homolog, can lead to Maple Syrup Urine Disease (MSUD).

[12] = tested on: aro4Δ mutant; assay: Yeast growth assay of aro4Δ mutant with phenylalanine; assay type: cell-based, Saccharomyces cerevisiae; conditions: SD medium with phenylalanine
Source text: The focus was put on a strain with a deletion of the ARO4 gene. The inventors aimed to determine whether the toxic effect is influenced by phenylalanine feeding. Thus, the cellular growth of wild-type and the aro4Δ mutant was examined by serial dilutions on selective plates that were supplemented with phenylalanine. In addition, cellular growth was also examined by measuring the turbidity of the medium upon addition of phenylalanine (FIG. 26A, 26B).

[13] = tested on: RB857 (PAH-1 mutant) and N2 (WT) worms; assay: C. elegans model for PKU; assay type: in vivo, Caenorhabditis elegans
Method: as §2
To study PKU in C. elegans model, a strain was used with mutation in the PAH-1 gene (RB857)]. […] Next, the effect of one of the previously identified hits i.e. baicalein was examined on the development of worms. The life cycle of C. elegans is comprised of the embryonic stage, four larval stages (L1-L4) and adulthood. The end of each larval stage is marked with a molt, during which a new, stage-specific cuticle is synthesized and the old one is shed.

SMILES: O=C1c2ccccc2C(=O)c2c(O)c(O)cc(O)c21 [Purpurin, 1,2,4-trihydroxyanthracene-9,10-dione]
- IC50 [1]: 14.4 nM
- amyloids staining (ThT, end point) [2]: significantly reduced the amyloids staining
- Proteostat staining of adenosine aggregates ([3]; 2 μM Purpurin, adenosine 200 μg/ml, 72 hours): reduced to significantly lower levels
- formation of adenosine aggregates (aggregation level, Proteostat staining) [3]: significantly reduce the aggregation level
- formation of adenosine aggregates (aggregation level, Proteostat staining) ([3]; listed as purpurin): inhibited the formation of these aggregates
- cell viability (XTT) [4]: substantial improvement in cell viability

SMILES: O=C(O[C@@H]1Cc2c(O)cc(O)cc2O[C@@H]1c1cc(O)c(O)c(O)c1)c1cc(O)c(O)c(O)c1 [EGCG, epigallocatechin gallate]
- growth of aro3Δ mutant ([5]; 4a.a SD with 0.03 mM tyrosine, different concentrations of EGCG): significant improvement in growth in a dose-dependent manner
- lag phase of cell growth kinetics ([5]; tyrosine in media, EGCG treated vs untreated cells): notably shorter
- tyrosine aggregates percentage (ProteoStat, FACS) [6]: dramatic reduction in the tyrosine aggregates percentage
- growth of wild-type cells [7]: no significant changes
- fertility of worms [8]: enhance the fertility of worms; also recorded: partially restore
- total number of viable worms [8]: elevation of the total number of worms; also recorded: partially restore
- phenylalanine aggregation and cytotoxicity of the assemblies in vitro [9]: counteract

SMILES: NCC(=O)O [glycine]
- growth with glycine in the growth medium [10]: dose-dependent growth inhibition

SMILES: CC[C@H](C)[C@H](N)C(=O)O [isoleucine]
- growth with isoleucine in the growth medium [11]: sensitivity

SMILES: N[C@@H](Cc1ccccc1)C(=O)O [phenylalanine]
- growth of aro4Δ mutant with phenylalanine in the medium [12]: growth inhibition
- RB857 worms that didn't reach adulthood by day 10 ([13]; 100 mM Phenylalanine): more than 90%
- worms reaching adulthood on day 4 ([13]; RB857, 100 mM phenylalanine in minimal media): none of the worms reached adulthood on day 4
- number of worms ([13]; RB857, phenylalanine added): significantly reduced the number of worms
